Target: T1, human orexin type 2 receptor (Homo sapiens, UniProt O43614)
T1 construct: expressed in transfected cells
T1 sequence (O43614 1-444): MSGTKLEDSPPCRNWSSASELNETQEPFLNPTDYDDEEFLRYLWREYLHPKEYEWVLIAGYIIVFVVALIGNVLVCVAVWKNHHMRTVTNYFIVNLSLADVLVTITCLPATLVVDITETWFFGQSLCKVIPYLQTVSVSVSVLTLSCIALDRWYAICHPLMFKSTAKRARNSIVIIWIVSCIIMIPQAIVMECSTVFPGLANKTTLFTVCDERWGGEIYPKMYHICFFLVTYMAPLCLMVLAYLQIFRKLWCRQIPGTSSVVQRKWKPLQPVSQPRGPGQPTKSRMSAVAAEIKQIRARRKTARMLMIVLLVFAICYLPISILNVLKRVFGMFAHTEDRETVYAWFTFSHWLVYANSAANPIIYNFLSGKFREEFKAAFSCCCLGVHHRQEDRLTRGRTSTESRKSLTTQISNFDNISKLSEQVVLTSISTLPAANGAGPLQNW
Test: Measurement of orexin type 2 receptor agonist activity (calcium indicator fluorescence, CHO cells forcibly expressing human OX2 receptor)
Assay type: cell-based
Settings: compound at 3 μM; 0% = DMSO, 100% = orexin A (human) 10 nM
Method in brief: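 CHO-dhfr cells stably expressing human OX2R, loaded with Fluo-4 AM (30 min 37 °C, then 30 min RT), then given test compound. Calcium fluorescence read by FDSS over ~2 min. Activity (%) scaled from DMSO (0%) to 10 nM final orexin A (100%).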

Row | Compound | OX2R agonist activity (3 μM, %) [%]
1 | CCS(=O)(=O)N[C@H]1[C@@H](F)CN(C(=O)C2CC2)[C@H]1Cc1cccc(-c2cc(F)ccc2F)c1F [Example 238, N-{(2S,3R,4S)-1-(cyclopropanecarbonyl)-4-fluoro-2-[(2,2′,5′-trifluoro[1,1′-biphenyl]-3-yl)methyl]pyrrolidin-3-yl}ethanesulfonamide] | 98
2 | CCS(=O)(=O)N[C@H]1[C@@H](F)CN(C(=O)N(C)C)[C@H]1Cc1cccc(-c2cc(F)cc(F)c2)c1F [Example 329, (2S,3R,4S)-3-[(ethanesulfonyl)amino]-4-fluoro-N,N-dimethyl-2-[(2,3′,5′-trifluoro[1,1′-biphenyl]-3-yl)methyl]pyrrolidine-1-carboxamide] | 88
3 | O=C(C1CCO1)N1C[C@H](F)[C@H](NS(=O)(=O)C2CC2)[C@@H]1Cc1cccc(-c2cc(F)ccc2F)c1F (stereo partly drawn) [Example 495, N-{(2S,3R,4S)-4-fluoro-1-(oxetane-2-carbonyl)-2-[(2,2′,5′-trifluoro[1,1′-biphenyl]-3-yl)methyl]pyrrolidin-3-yl}cyclopropanesulfonamide] | 92
4 | Cc1ccc(F)c(-c2cccc(C[C@H]3[C@@H](NS(=O)(=O)C4CC4)[C@@H](F)CN3C(=O)C3CCO3)c2F)c1 (stereo partly drawn) [Example 488, N-[(2S,3R,4S)-2-[(2,2′-difluoro-5′-methyl[1,1′-biphenyl]-3-yl)methyl]-4-fluoro-1-(oxetane-2-carobnyl)pyrrolidin-3-yl]cycloproapnesulfonamide] | 95
5 | CCS(=O)(=O)N[C@H]1[C@@H](F)CN(C(=O)C2CCO2)[C@H]1Cc1cccc(-c2ccc(F)c(C)c2)c1F (stereo partly drawn) [Example 500, N-[(2S,3R,4S)-2-[(2,4′-difluoro-3′-methyl[1,1′-biphenyl]-3-yl)methyl]-4-fluoro-1-(oxetane-2-carbonyl)pyrrolidin-3-yl]ethanesulfonamide] | 98
6 | Cc1cc(F)cc(-c2cccc(C[C@H]3[C@@H](NS(=O)(=O)N(C)C)C(F)(F)CN3C(=O)N(C)C)c2F)c1 [Example 526, (2S,3R)-2-[(2,3′-difluoro-5′-methyl[1,1′-biphenyl]-3-yl)methyl]-3-[(dimethyslulfamoyl)amino]-4,4-difluoro-N,N-dimethylpyrrolidine-1-carboxamide] | 83

Other lines, results leading:

Row | OX2R agonist activity (3 μM, %) [%] | Compound
7 | 99 | CCS(=O)(=O)N[C@@H]1[C@H](Cc2cccc(-c3cccc(F)c3)c2F)N(C(=O)C(C)(C)O)CC1(F)F [Example 8, N-[(2S,3R)-2-[(2,3′-difluoro[1,1′-biphenyl]-3-yl)methyl]-4,4-difluoro-1-(2-hydroxy-2-methylpropanoyl)pyrrolidin-3-yl]ethanesulfonamide]
8 | 95 | CCS(=O)(=O)N[C@H]1[C@@H](F)CN(C(=O)N(C)C)[C@H]1Cc1cccc(-c2cccc(Cl)c2)c1F [Example 332, (2S,3R,4S)-2-[(3′-chloro-2-fluoro[1,1′-biphenyl]-3-yl)methyl]-3-[(ethanesulfonyl)amino]-4-fluoro-N,N-dimethylpyrrolidine-1-carboxamide]
9 | 105 | CCS(=O)(=O)N[C@@H]1[C@H](Cc2cccc(-c3ccc(F)c(F)c3)c2F)N(C(=O)C2CCO2)CC1(F)F (stereo partly drawn) [Example 467, N-{(2S,3R)-4,4-difluoro-1-(oxetane-2-carbonyl)-2-[(2,3′,4′-trifluoro[1,1′-biphenyl]-3-yl)methyl]pyrrolidin-3-yl}ethanesulfonamide]
10 | 85 | CCS(=O)(=O)N[C@@H]1[C@H](Cc2cccc(-c3cccc(F)c3)c2F)N(C(=O)[C@H]2CCCO2)CC1(F)F [Example 453, N-{(2S,3R)-2-[(2,3′-difluoro[1,1′-biphenyl]-3-yl)methyl]-4,4-difluoro-1-[(2R)-oxolane-2-carbonyl]pyrrolidin-3-yl}ethanesulfonamide]
11 | 89 | CCS(=O)(=O)N[C@@H]1[C@H](Cc2cccc(-c3cccc(F)c3F)c2F)N(C(=O)C2CC2)CC1(F)F [Example 204, N-{(2S,3R)-1-(cyclopropanecarbonyl)-4,4-difluoro-2-[(2,2′,3′-trifluoro[1,1′-biphenyl]-3-yl)methyl]pyrrolidin-3-yl}ethanesulfonamide]

Reference: patent US20230040770A1, “HETEROCYCLIC COMPOUND AND USE THEREOF” (TAKEDA PHARMACEUTICAL COMPANY LIMITED, priority 2019, published 2023)
